# Reference: patent publication US9790235B2, “MK2 inhibitors and uses thereof” (Celgene CAR LLC, priority 2014, dated 2017)
# Read-outs that look alike come from different tables or passages of the source.
# Target: MK2 (Homo sapiens (Human), UniProt P49137)
# [1] = percentage of modified protein after 60 minutes at room temperature, 10-fold excess of compound, MALDI (I-1 to I-50), magnetic bead MALDI (I-51 to I-129)
# 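Further: covalent binding read from centroid mass shift of compound-treated versus untreated intact MK2, shift divided by compound molecular weight, giving fraction of total protein bound.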
# Procedure: Aliquots of the resulting mixture (6 μL each) were diluted with 0.2% trifluoroacetic acid (TFA, 10 μL) prior to micro C4 ZipTipping directly onto the MALDI target using sinapinic acid as the desorption matrix (10 mg/ml in 0.1% TFA:acetonitrile 50:50, v/v). The centroid mass of the target protein in the control sample was compared with the centroid mass of the target protein incubated with compound. A shift in the centroid mass of the treated protein compared to the untreated protein was divided by the molecular weight of the compound. This number corresponds to the percentage of modified protein (a measure of the proportion of total target protein covalently bound to the test compound) after one hour incubation.
# 3 μL of magnetic Ni-NTA beads were added to the 6 μL aliquots of sample, washed, eluted with 0.2% trifluoroacetic acid (TFA, 2 μL), and spotted directly onto the MALDI target using sinapinic acid as the desorption matrix (10 mg/ml in 0.1% TFA:acetonitrile 50:50, v/v). The centroid mass of the target protein in the control sample was compared with the centroid mass of the target protein incubated with compound. A shift in the centroid mass of the treated protein compared to the untreated protein was divided by the molecular weight of the compound. This number corresponds to the percentage of modified protein (a measure of the proportion of total target protein covalently bound to the test compound) after one hour incubation.
# Sequence of MK2 (P49137 whole entry): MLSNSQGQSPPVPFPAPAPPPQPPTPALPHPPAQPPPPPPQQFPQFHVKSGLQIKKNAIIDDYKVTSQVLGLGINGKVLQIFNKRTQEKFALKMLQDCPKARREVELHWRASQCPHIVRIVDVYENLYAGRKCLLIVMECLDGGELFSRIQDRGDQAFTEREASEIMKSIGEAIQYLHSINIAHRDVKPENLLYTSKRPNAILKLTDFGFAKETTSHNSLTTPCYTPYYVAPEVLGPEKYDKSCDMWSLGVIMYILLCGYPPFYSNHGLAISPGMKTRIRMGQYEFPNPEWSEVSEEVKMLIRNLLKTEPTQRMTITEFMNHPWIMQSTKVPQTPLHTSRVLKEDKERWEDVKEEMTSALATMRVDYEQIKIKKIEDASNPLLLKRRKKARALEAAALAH
Structure (SMILES),Mass Modification [1],Mass Modification
"C[C@@H]1CNc2c(sc3ccc4nc(Nc5cc(F)nc(F)c5)ccc4c23)C(=O)N1 [I-6, (R)-3-((2,6-difluoropyridin-4-yl)amino)-10-methyl-9,10,11,12-tetrahydro-8H-[1,4]diazepino[5′,6′:4,5]thieno[3,2-f]quinolin-8-one]",G (mass modification ≦30%),
"C[C@@H]1CNc2c(sc3ccc4nc(Nc5nc(Cl)ncc5C(=O)NC5CCN(C)CC5)ccc4c23)C(=O)N1 [I-19, (R)-2-chloro-4-((10-methyl-8-oxo-9,10,11,12-tetrahydro-8H-[1,4]diazepino-[5′,6′:4,5]thieno[3,2-f]quinolin-3-yl)amino)-N-(1-methylpiperidin-4-yl)pyrimidine-5-carboxamide]",,G (key: E: mass modification of ≧70%; F: mass modification of 31-69%; G: mass modification ≦30%)
"C[C@@H]1CNc2c(sc3ccc4nc(Nc5cc(F)nc(OCCN(C)C)n5)ccc4c23)C(=O)N1 [I-32, (R)-3-((2-(2-(dimethylamino)ethoxy)-6-fluoropyrimidin-4-yl)amino)-10-methyl-9,10,11,12-tetrahydro-8H-[1,4]diazepino[5′,6′:4,5]thieno[3,2-f]quinolin-8-one]",F (mass modification of 31-69%),
"C[C@@H]1CNc2c(sc3ccc4nc(Nc5cc(F)nc(OC6COC6)n5)ccc4c23)C(=O)N1 [I-37, (R)-3-((6-fluoro-2-(oxetan-3-yloxy)pyrimidin-4-yl)amino)-10-methyl-9,10,11,12-tetrahydro-8H-[1,4]diazepino[5′,6′:4,5]thieno[3,2-f]quinolin-8-one]",F (mass modification of 31-69%),
"C[C@@H]1CNc2c(sc3ccc4nc(Nc5cc(F)nc(OCC6(C)COC6)n5)ccc4c23)C(=O)N1 [I-39, (R)-3-((6-fluoro-2-((3-methyloxetan-3-yl)methoxy)pyrimidin-4-yl)amino)-10-methyl-9,10,11,12-tetrahydro-8H-[1,4]diazepino[5′,6′:4,5]thieno[3,2-f]quinolin-8-one]",G (mass modification ≦30%),
"C[C@@H]1CNc2c(sc3ccc4nc(Nc5cc(F)nc(O[C@H]6CCOC6)n5)ccc4c23)C(=O)N1 [I-40, (R)-3-((6-fluoro-2-(((S)-tetrahydrofuran-3-yl)oxy)pyrimidin-4-yl)amino)-10-methyl-9,10,11,12-tetrahydro-8H-[1,4]diazepino[5′,6′:4,5]thieno[3,2-f]quinolin-8-one]",G (mass modification ≦30%),
"C[C@@H]1CNc2c(sc3ccc4nc(Nc5cc(F)nc(O[C@@H]6CCOC6)n5)ccc4c23)C(=O)N1 [I-41, (R)-3-((6-fluor-2-(((R)-tetrahydrofuran-3-yl)oxy)pyrimidin-4-yl)amino)-10-methyl-9,10,11,12-tetrahydro-8H-[1,4]diazepino[5′,6′:4,5]thieno[3,2-f]quinolin-8-one]",G (mass modification ≦30%),
"C[C@@H]1CNc2c(sc3ccc4nc(Nc5nc(F)cc(OCC6(C)COC6)n5)ccc4c23)C(=O)N1 [I-43, (R)-3-((4-fluoro-6-((3-methyloxetan-3-yl)methoxy)pyrimidin-2-yl)amino)-10-methyl-9,10,11,12-tetrahydro-8H-[1,4]diazepino[5′,6′:4,5]thieno[3,2-f]quinolin-8-one]",G (mass modification ≦30%),
"C[C@@H]1CNc2c(sc3ccc4nc(Nc5nc(F)cc(O[C@@H]6CCOC6)n5)ccc4c23)C(=O)N1 [I-46, (R)-3-((4-fluoro-6-(((R)-tetrahydrofuran-3-yl)oxy)pyrimidin-2-yl)amino)-10-methyl-9,10,11,12-tetrahydro-8H-[1,4]diazepino[5′,6′:4,5]thieno[3,2-f]quinolin-8-one]",F (mass modification of 31-69%),
"C[C@@H]1CNc2c(sc3ccc4nc(Nc5cc(F)nc(O[C@@H]6CCN(C)C6)n5)ccc4c23)C(=O)N1 [I-49, (R)-3-((6-fluor-2-(((R)-1-methylpyrrolidin-3-yl)oxy)pyrimidin-4-yl)amino)-10-methyl-9,10,11,12-tetrahydro-8H-[1,4]diazepino[5′,6′:4,5]thieno[3,2-f]quinolin-8-one]",G (mass modification ≦30%),
"C[C@@H]1CNc2c(sc3ccc4nc(Nc5nc(F)cc(O[C@H]6CCOC6)n5)ccc4c23)C(=O)N1 [I-50, (R)-3-((4-fluoro-6-(((S)-tetrahydrofuran-3-yl)oxy)pyrimidin-2-yl)amino)-10-methyl-9,10,11,12-tetrahydro-8H-[1,4]diazepino[5′,6′:4,5]thieno[3,2-f]quinolin-8-one]",F (mass modification of 31-69%),
"C[C@@H]1CNc2c(sc3ccc4nc(Oc5nc(Cl)nc(N6CCC(F)(F)C6)n5)ccc4c23)C(=O)N1 [I-77, (R)-3-((4-chloro-6-(3,3-difluoropyrrolidin-1-yl)-1,3,5-triazin-2-yl)oxy)-10-methyl-9,10,11,12-tetrahydro-8H-[1,4]diazepino[5′,6′:4,5]thieno[3,2-f]quinolin-8-one]",E (mass modification of ≧70%),
"C[C@@H]1CNc2c(sc3ccc4nc(Oc5nc(Cl)nc(N6CCCC(F)(F)C6)n5)ccc4c23)C(=O)N1 [I-78, (R)-3-((4-chloro-6-(3,3-difluoropiperidin-1-yl)-1,3,5-triazin-2-yl)oxy)-10-methyl-9,10,11,12-tetrahydro-8H-[1,4]diazepino[5′,6′:4,5]thieno[3,2-f]quinolin-8-one]",E (mass modification of ≧70%),
"C[C@@H]1CNc2c(sc3ccc4nc(Oc5nc(Cl)ncc5CNC(C)(C)C)ccc4c23)C(=O)N1 [I-102, (R)-3-((5-((tert-butylamino)methyl)-2-chloropyrimidin-4-yl)oxy)-10-methyl-9,10,11,12-tetrahydro-8H-[1,4]diazepino[5′,6′:4,5]thieno[3,2-f]quinolin-8-one]",E (mass modification of ≧70%),
